Reference: ChEMBL document CHEMBL1201861, “Genomics of Drug Sensitity in Cancer screening data, Wellcome Trust Sanger Institute”

Assays:
Test in all cases: cells
Assay type in all cases: functional, cell-based
Settings in all cases: Homo sapiens
DB = tested on: DB
Description: SANGER: Inhibition of human DB cell growth in a cell viability assay.

DSH1 = tested on: DSH1;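 note: growth inhibition of human DSH1 cells, measured with a cell viability readout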
Description: SANGER: Inhibition of human DSH1 cell growth in a cell viability assay.

ES1 = tested on: ES1;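 note: growth inhibition of ES1 cells, read out with a cell viability assay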
Description: SANGER: Inhibition of human ES1 cell growth in a cell viability assay.

ES7 = tested on: ES7;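 note: growth inhibition of cultured human ES7 cells, read out as cell viability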
Description: SANGER: Inhibition of human ES7 cell growth in a cell viability assay.

EW-1 = tested on: EW-1;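 note: growth inhibition of the human EW-1 cell line, read out by a cell viability assay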
Description: SANGER: Inhibition of human EW-1 cell growth in a cell viability assay.

GR-ST = tested on: GR-ST
Description: SANGER: Inhibition of human GR-ST cell growth in a cell viability assay.

HC-1 = tested on: HC-1;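 note: growth inhibition of HC-1 cells measured by a cell viability assay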
Description: SANGER: Inhibition of human HC-1 cell growth in a cell viability assay.

HT = tested on: HT
Description: SANGER: Inhibition of human HT cell growth in a cell viability assay.

HT-144 = tested on: HT-144
Description: SANGER: Inhibition of human HT-144 cell growth in a cell viability assay.

IA-LM = tested on: IA-LM;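 note: cell viability assay measuring growth inhibition of human IA-LM cells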
Description: SANGER: Inhibition of human IA-LM cell growth in a cell viability assay.

K562 = tested on: K562
Description: SANGER: Inhibition of human K-562 cell growth in a cell viability assay.

KARPAS-299 = tested on: KARPAS-299
Description: SANGER: Inhibition of human KARPAS-299 cell growth in a cell viability assay.

KMOE-2 = tested on: KMOE-2;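 note: growth inhibition of human KMOE-2 cells, read out with a cell viability assay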
Description: SANGER: Inhibition of human KMOE-2 cell growth in a cell viability assay.

LAN-6 = tested on: LAN-6;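 note: growth inhibition of LAN-6 cells, determined with a cell viability assay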
Description: SANGER: Inhibition of human LAN-6 cell growth in a cell viability assay.

LB2518-MEL = tested on: LB2518-MEL;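 note: growth inhibition of human LB2518-MEL cells, measured with a cell viability assay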
Description: SANGER: Inhibition of human LB2518-MEL cell growth in a cell viability assay.

LB373-MEL-D = tested on: LB373-MEL-D;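 note: growth inhibition of the cell line, read out in a cell viability assay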
Description: SANGER: Inhibition of human LB373-MEL-D cell growth in a cell viability assay.

LB771-HNC = tested on: LB771-HNC;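 note: growth inhibition of LB771-HNC human cells, read out with a cell viability assay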
Description: SANGER: Inhibition of human LB771-HNC cell growth in a cell viability assay.

LC-2-ad = tested on: LC-2-ad;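 note: growth inhibition of human LC-2-ad cells, read out with a cell viability assay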
Description: SANGER: Inhibition of human LC-2-ad cell growth in a cell viability assay.

LOX IMVI = tested on: LOX IMVI
Description: SANGER: Inhibition of human LOXIMVI cell growth in a cell viability assay.

LS-513 = tested on: LS-513
Description: SANGER: Inhibition of human LS-513 cell growth in a cell viability assay.

LU-139 = tested on: LU-139
Description: SANGER: Inhibition of human LU-139 cell growth in a cell viability assay.

LXF-289 cell line = tested on: LXF-289 cell line
Description: SANGER: Inhibition of human LXF-289 cell growth in a cell viability assay.

MC116 = tested on: MC116;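 note: growth inhibition of MC116 cells, read out with a cell viability assay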
Description: SANGER: Inhibition of human MC116 cell growth in a cell viability assay.

MFM-223 = tested on: MFM-223
Description: SANGER: Inhibition of human MFM-223 cell growth in a cell viability assay.

MLMA = tested on: MLMA;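 note: growth inhibition of MLMA cells (human), determined through a cell viability readout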
Description: SANGER: Inhibition of human MLMA cell growth in a cell viability assay.

MMAC-SF = tested on: MMAC-SF;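 note: growth inhibition of human MMAC-SF cells, read out with a cell viability assay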
Description: SANGER: Inhibition of human MMAC-SF cell growth in a cell viability assay.

MZ1-PC = tested on: MZ1-PC;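 note: cell viability assay measuring growth inhibition of human MZ1-PC cells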
Description: SANGER: Inhibition of human MZ1-PC cell growth in a cell viability assay.

MZ7-mel = tested on: MZ7-mel;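 note: growth inhibition of human MZ7-mel cells, measured by a cell viability assay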
Description: SANGER: Inhibition of human MZ7-mel cell growth in a cell viability assay.

Mo = tested on: Mo
Description: SANGER: Inhibition of human Mo-T cell growth in a cell viability assay.

NB5 = tested on: NB5;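 note: growth inhibition of NB5 cells, read out as cell viability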
Description: SANGER: Inhibition of human NB5 cell growth in a cell viability assay.

NB6 = tested on: NB6;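 note: growth inhibition of NB6 cells, read out by a cell viability assay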
Description: SANGER: Inhibition of human NB6 cell growth in a cell viability assay.

NCI-H1092 = tested on: NCI-H1092;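 note: cell growth inhibition measured with a cell viability assay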
Description: SANGER: Inhibition of human NCI-H1092 cell growth in a cell viability assay.

NCI-H1304 = tested on: NCI-H1304;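 note: growth inhibition of the cancer cell line, measured in a cell viability assay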
Description: SANGER: Inhibition of human NCI-H1304 cell growth in a cell viability assay.

NCI-H1650 = tested on: NCI-H1650;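 note: growth inhibition of human NCI-H1650 cells measured by a cell viability assay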
Description: SANGER: Inhibition of human NCI-H1650 cell growth in a cell viability assay.

NCI-H1838 = tested on: NCI-H1838;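 note: growth inhibition of NCI-H1838 cells, determined with a cell viability readout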
Description: SANGER: Inhibition of human NCI-H1838 cell growth in a cell viability assay.

NCI-H226 = tested on: NCI-H226;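 note: cell viability read-out used to gauge growth inhibition of the cells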
Description: SANGER: Inhibition of human NCI-H226 cell growth in a cell viability assay.

NCI-H446 = tested on: NCI-H446;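 note: growth inhibition of NCI-H446 cells determined by a cell viability assay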
Description: SANGER: Inhibition of human NCI-H446 cell growth in a cell viability assay.

NCI-H82 = tested on: NCI-H82;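 note: growth inhibition of NCI-H82 cells, measured with a cell viability readout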
Description: SANGER: Inhibition of human NCI-H82 cell growth in a cell viability assay.

SNU-5 = tested on: SNU-5;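 note: cell viability readout used to measure growth inhibition in human NCI-SNU-5 cells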
Description: SANGER: Inhibition of human NCI-SNU-5 cell growth in a cell viability assay.

NH-12 = tested on: NH-12;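 note: growth inhibition of NH-12 cells, read out with a cell viability assay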
Description: SANGER: Inhibition of human NH-12 cell growth in a cell viability assay.

NMC-G1 = tested on: NMC-G1;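 note: growth inhibition of the NMC-G1 cell line, measured with a cell viability read-out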
Description: SANGER: Inhibition of human NMC-G1 cell growth in a cell viability assay.

OCI-AML2 = tested on: OCI-AML2;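 note: growth inhibition of OCI-AML2 cells, read out with a cell viability assay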
Description: SANGER: Inhibition of human OCI-AML2 cell growth in a cell viability assay.

OCUB-M = tested on: OCUB-M;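 note: growth inhibition of the cancer cell line, read out through a cell viability assay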
Description: SANGER: Inhibition of human OCUB-M cell growth in a cell viability assay.

OVCAR-4 = tested on: OVCAR-4;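 note: growth inhibition of human OVCAR-4 cells, measured with a cell viability assay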
Description: SANGER: Inhibition of human OVCAR-4 cell growth in a cell viability assay.

PSN1 = tested on: PSN1;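 note: suppression of growth of human PSN1 cells, read out by a cell viability assay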
Description: SANGER: Inhibition of human PSN1 cell growth in a cell viability assay.

RCC10RGB = tested on: RCC10RGB;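 note: growth inhibition of human RCC10RGB cells, read out by a cell viability assay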
Description: SANGER: Inhibition of human RCC10RGB cell growth in a cell viability assay.

RKO = tested on: RKO;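 note: growth inhibition of human RKO cells, read out with a cell viability assay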
Description: SANGER: Inhibition of human RKO cell growth in a cell viability assay.

RPMI-8226 = tested on: RPMI-8226
Description: SANGER: Inhibition of human RPMI-8226 cell growth in a cell viability assay.

Ramos-2G6-4C10 = tested on: Ramos-2G6-4C10;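 note: growth inhibition of the cell line, measured by a cell viability read-out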
Description: SANGER: Inhibition of human Ramos-2G6-4C10 cell growth in a cell viability assay.

SF-268 = tested on: SF-268;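 note: growth inhibition of SF-268 cells determined with a cell viability assay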
Description: SANGER: Inhibition of human SF268 cell growth in a cell viability assay.

SK-PN-DW = tested on: SK-PN-DW;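 note: growth inhibition measured with a viability assay on these cells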
Description: SANGER: Inhibition of human SK-PN-DW cell growth in a cell viability assay.

SK-UT-1 = tested on: SK-UT-1;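 note: growth inhibition of SK-UT-1 cells, measured by a cell viability assay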
Description: SANGER: Inhibition of human SK-UT-1 cell growth in a cell viability assay.

SNU-C2B = tested on: SNU-C2B;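 note: cell viability readout used to measure compound-driven suppression of SNU-C2B cell proliferation, IC50 marking half-maximal growth inhibition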
Description: SANGER: Inhibition of human SNU-C2B cell growth in a cell viability assay.

697 = tested on: 697
Description: SANGER: Inhibition of human 697 cell growth in a cell viability assay.

8-MG-BA = tested on: 8-MG-BA;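 note: growth inhibition of 8-MG-BA cells, read out with a cell viability assay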
Description: SANGER: Inhibition of human 8-MG-BA cell growth in a cell viability assay.

A101D = tested on: A101D;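 note: growth inhibition of the cell line, measured with a viability assay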
Description: SANGER: Inhibition of human A101D cell growth in a cell viability assay.

BB30-HNC = tested on: BB30-HNC;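 note: growth inhibition of the cultured cell line, read out by a cell viability assay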
Description: SANGER: Inhibition of human BB30-HNC cell growth in a cell viability assay.

BE-13 = tested on: BE-13;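 note: growth inhibition of human BE-13 cells, measured with a cell viability assay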
Description: SANGER: Inhibition of human BE-13 cell growth in a cell viability assay.

BT-474 = tested on: BT-474
Description: SANGER: Inhibition of human BT-474 cell growth in a cell viability assay.

TE-10 = tested on: TE-10;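 note: growth inhibition of TE-10 cells, measured by a cell viability assay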
Description: SANGER: Inhibition of human TE-10 cell growth in a cell viability assay.

TE-6 = tested on: TE-6;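 note: growth inhibition of TE-6 cells, read out with a cell viability assay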
Description: SANGER: Inhibition of human TE-6 cell growth in a cell viability assay.

TE-8 = tested on: TE-8;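 note: growth inhibition of TE-8 cells, measured with a cell viability readout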
Description: SANGER: Inhibition of human TE-8 cell growth in a cell viability assay.

TE-9 = tested on: TE-9;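 note: cell growth inhibition, measured with a cell viability readout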
Description: SANGER: Inhibition of human TE-9 cell growth in a cell viability assay.

UACC-257 = tested on: UACC-257
Description: SANGER: Inhibition of human UACC-257 cell growth in a cell viability assay.

CCRF-CEM = tested on: CCRF-CEM;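 note: inhibition of CCRF-CEM cell growth, measured by a cell viability assay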
Description: SANGER: Inhibition of human CCRF-CEM cell growth in a cell viability assay.

CGTH-W-1 = tested on: CGTH-W-1
Description: SANGER: Inhibition of human CGTH-W-1 cell growth in a cell viability assay.

CCNC(=O)c1noc(-c2cc(C(C)C)c(O)cc2O)c1-c1ccc(CN2CCOCC2)cc1 [LUMINESPIB] showed an IC50 (DB) of 229 nM, an IC50 (DSH1) of 62.7 nM and an IC50 (ES1) of 2.66 nM. For the same compound, the IC50 (ES7) was 33.7 nM, the IC50 (EW-1) was 28.2 nM and the IC50 (GR-ST) was 102 nM. It also gave an IC50 (HC-1) of 40.7 nM, an IC50 (HT) of 226 nM and an IC50 (HT-144) of 1.55 nM. For the same compound, the IC50 (IA-LM) was 10.9 nM, the IC50 (K562) was 53.9 nM and the IC50 (KARPAS-299) was 230 nM. For the same compound, the IC50 (KMOE-2) was 57.5 nM, the IC50 (LAN-6) was 85 nM and the IC50 (LB2518-MEL) was over 256 nM. The IC50 (LB373-MEL-D) was over 256 nM, the IC50 (LB771-HNC) was over 256 nM and the IC50 (LC-2-ad) was 13.7 nM. The IC50 (LOX IMVI) was 23.2 nM, the IC50 (LS-513) was 74.6 nM and the IC50 (LU-139) was over 256 nM. For the same compound, the IC50 (LXF-289 cell line) was 26.7 nM, the IC50 (MC116) was over 256 nM and the IC50 (MFM-223) was over 256 nM. It also gave an IC50 (MLMA) of 46.1 nM, an IC50 (MMAC-SF) of 43 nM and an IC50 (MZ1-PC) of 26.4 nM. For the same compound, the IC50 (MZ7-mel) was 43.3 nM, the IC50 (Mo) was over 256 nM and the IC50 (NB5) was 36.1 nM. It also gave an IC50 (NB6) of over 256 nM, an IC50 (NCI-H1092) of 141 nM and an IC50 (NCI-H1304) of 82.7 nM. For the same compound, the IC50 (NCI-H1650) was 16.5 nM, the IC50 (NCI-H1838) was over 256 nM and the IC50 (NCI-H226) was 59.9 nM. The IC50 (NCI-H446) was over 256 nM, the IC50 (NCI-H82) was over 256 nM and the IC50 (SNU-5) was over 256 nM. It also gave an IC50 (NH-12) of 44.4 nM, an IC50 (NMC-G1) of 22.8 nM and an IC50 (OCI-AML2) of 12.8 nM. The IC50 (OCUB-M) was 39.6 nM, the IC50 (OVCAR-4) was 38.6 nM and the IC50 (PSN1) was 3.18 nM. It also gave an IC50 (RCC10RGB) of over 256 nM, an IC50 (RKO) of 8.26 nM and an IC50 (RPMI-8226) of 117 nM. It also gave an IC50 (Ramos-2G6-4C10) of 76.5 nM, an IC50 (SF-268) of 34 nM and an IC50 (SK-PN-DW) of 55.9 nM. It also gave an IC50 (SK-UT-1) of 32.2 nM, an IC50 (SNU-C2B) of 12.7 nM and an IC50 697 of 20.3 nM. The IC50 (8-MG-BA) was 18.8 nM, the IC50 (A101D) was 19.9 nM and the IC50 (BB30-HNC) was 9.52 nM. The IC50 (BE-13) was over 256 nM, the IC50 (BT-474) was 70.6 nM and the IC50 (TE-10) was 19.8 nM. The IC50 (TE-6) was 246 nM, the IC50 (TE-8) was 2.37 nM and the IC50 (TE-9) was 42.4 nM. It also gave an IC50 (UACC-257) of 75.1 nM, an IC50 (CCRF-CEM) of 23.3 nM and an IC50 (CGTH-W-1) of 23.3 nM.
CO[C@@]12[C@H](COC(N)=O)C3=C(C(=O)C(C)=C(N)C3=O)N1C[C@@H]1N[C@@H]12 [MITOMYCIN] was tested, and the IC50 (DB) was 430 nM, the IC50 (DSH1) was 96.5 nM and the IC50 (ES1) was under 62.5 nM. It also gave an IC50 (ES7) of under 62.5 nM, an IC50 (EW-1) of 88.1 nM and an IC50 (GR-ST) of 121 nM. For the same compound, the IC50 (HC-1) was 157 nM, the IC50 (HT) was 1540 nM and the IC50 (HT-144) was 23.8 nM. It also gave an IC50 (IA-LM) of 109 nM, an IC50 (K562) of 1980 nM and an IC50 (KARPAS-299) of 1420 nM. It also gave an IC50 (KMOE-2) of 1620 nM, an IC50 (LAN-6) of 328 nM and an IC50 (LB2518-MEL) of 535 nM. The IC50 (LB373-MEL-D) was 430 nM, the IC50 (LB771-HNC) was 780 nM and the IC50 (LC-2-ad) was under 62.5 nM. For the same compound, the IC50 (LOX IMVI) was 353 nM, the IC50 (LS-513) was 1180 nM and the IC50 (LU-139) was 1220 nM. The IC50 (LXF-289 cell line) was 55.4 nM, the IC50 (MC116) was 1420 nM and the IC50 (MFM-223) was 10400 nM. The IC50 (MLMA) was 1310 nM, the IC50 (MMAC-SF) was 1010 nM and the IC50 (MZ1-PC) was 450 nM. For the same compound, the IC50 (MZ7-mel) was 333 nM, the IC50 (Mo) was 8910 nM and the IC50 (NB5) was 358 nM. For the same compound, the IC50 (NB6) was 2230 nM, the IC50 (NCI-H1092) was 3280 nM and the IC50 (NCI-H1304) was 375 nM. For the same compound, the IC50 (NCI-H1650) was 283 nM, the IC50 (NCI-H1838) was 404 nM and the IC50 (NCI-H226) was 777 nM. The IC50 (NCI-H446) was 12400 nM, the IC50 (NCI-H82) was 2800 nM and the IC50 (SNU-5) was 141 nM. For the same compound, the IC50 (NH-12) was 139 nM, the IC50 (NMC-G1) was 217 nM and the IC50 (OCI-AML2) was under 62.5 nM. It also gave an IC50 (OCUB-M) of 103 nM, an IC50 (OVCAR-4) of 697 nM and an IC50 (PSN1) of under 62.5 nM. For the same compound, the IC50 (RCC10RGB) was 1350 nM, the IC50 (RKO) was 125 nM and the IC50 (RPMI-8226) was 1240 nM. The IC50 (Ramos-2G6-4C10) was 2550 nM, the IC50 (SF-268) was 171 nM and the IC50 (SK-PN-DW) was 63.8 nM. For the same compound, the IC50 (SK-UT-1) was 82.8 nM, the IC50 (SNU-C2B) was 295 nM and the IC50 697 was under 62.5 nM. It also gave an IC50 (8-MG-BA) of 104 nM, an IC50 (A101D) of 257 nM and an IC50 (BB30-HNC) of 30.6 nM. For the same compound, the IC50 (BE-13) was under 62.5 nM, the IC50 (BT-474) was 2620 nM and the IC50 (TE-10) was 72.6 nM. The IC50 (TE-6) was 894 nM, the IC50 (TE-8) was 35.9 nM and the IC50 (TE-9) was 500 nM. For the same compound, the IC50 (UACC-257) was 1570 nM, the IC50 (CCRF-CEM) was 61.7 nM and the IC50 (CGTH-W-1) was 38.7 nM.
